Experiments:
Rattus norvegicus [1] = species on record: Rattus norvegicus; assay: Compound was evaluated for the inhibition of [125I]-labeled D-mannose-bovine serum albumin binding to alveolar macrophages at 10 uM
Rattus norvegicus [2] = species on record: Rattus norvegicus; assay: Compound was evaluated for the inhibition of [125I]-labeled D-mannose-bovine serum albumin binding to alveolar macrophages at 100 uM
[3] = Compound was evaluated for the inhibition of [125I]-labeled D-mannose-bovine serum albumin binding to alveolar macrophages; parameters: species or system Rattus norvegicus
Rattus norvegicus [4] = species on record: Rattus norvegicus; assay: Compound was evaluated for the inhibition of [125I]-labeled D-mannose-bovine serum albumin binding to alveolar macrophages at 50 uM

Row | SMILES | inhibition (Rattus norvegicus [1]) [%] | inhibition (Rattus norvegicus [2]) [%] | Ki [3] [µM] | inhibition (Rattus norvegicus [4]) [%]
1 | CC1OC(SCCC(=O)NCCCCC(NC(=O)[C@@H](CCCCNC(=O)CCSC2OC(C)C(O)C(O)C2O)NC(=O)CCSC2OC(C)C(O)C(O)C2O)C(=O)O)C(O)C(O)C1O (stereo partly specified) | 9 | 45 |  | 
2 | O=C(CCSC1OC(CO)C(O)C(O)C1O)NCCCC[C@H](NC(=O)CCSC1OC(CO)C(O)C(O)C1O)C(=O)O (stereo partly specified) |  |  | 7.7 | 
3 | CC(C)CCCC(C)C1CCC2C3CC=C4CC(OCCCCCCNC(=O)C(CCCCNC(=O)CCSC5OC(CO)C(O)C(O)C5O)NC(=O)[C@@H](CCCCNC(=O)CCSC5OC(CO)C(O)C(O)C5O)NC(=O)CCSC5OC(CO)C(O)C(O)C5O)CCC4(C)C3CCC12C (stereo partly specified) |  |  | 4 | 
4 | O=C(CCSC1OC(CO)C(O)C(O)C1O)NCCCCC(NC(=O)[C@@H](CCCCNC(=O)CCSC1OC(CO)C(O)C(O)C1O)NC(=O)CCSC1OC(CO)C(O)C(O)C1O)C(=O)O (stereo in doubt; 14) [listing 1 of 2 here] |  |  | 3.9 | 
5 | O=C(CCSC1OC(CO)C(O)C(O)C1O)NCCCCC(NC(=O)[C@@H](CCCCNC(=O)CCSC1OC(CO)C(O)C(O)C1O)NC(=O)CCSC1OC(CO)C(O)C(O)C1O)C(=O)O (stereo in doubt; 14) [listing 2 of 2 here] | 43 | 89 |  | 81
6 | O=C(CSC1OC(CO)C(O)C(O)C1O)NCCCCC(NC(=O)[C@@H](CCCCNC(=O)CSC1OC(CO)C(O)C(O)C1O)NC(=O)CSC1OC(CO)C(O)C(O)C1O)C(=O)O (stereo partly specified) | 27 | 81 |  | 68
7 | NCCCCCCNC(=O)C(CCCCNC(=O)CCSC1OC(CO)C(O)C(O)C1O)NC(=O)[C@@H](CCCCNC(=O)CCSC1OC(CO)C(O)C(O)C1O)NC(=O)CCSC1OC(CO)C(O)C(O)C1O (stereo partly specified) |  | 5 | 8 | 
8 | O=C(CCSC1OC(CO)C(O)C(O)C1O)NCCCCC(NC(=O)[C@@H](CCCCNC(=O)CCSC1OC(CO)C(O)C(O)C1O)NC(=O)CCSC1OC(CO)C(O)C(O)C1O)C(=O)NCCCCCCNC(=O)CCc1ccc(O)cc1 (stereo partly specified) |  |  | 9.3 | 
9 | CC(=O)C(CCCC/N=C(/N)CSC1OC(CO)C(O)C(O)C1O)NC(=O)[C@@H](CCCC/N=C(\N)CSC1OC(CO)C(O)C(O)C1O)/N=C(\N)CSC1OC(CO)C(O)C(O)C1O (stereo partly specified) |  |  | 6 | 
10 | O=C(CCSC1OC(CO)C(O)C(O)C1O)NCCCC[C@@H](NC(=O)CCSC1OC(CO)C(O)C(O)C1O)C(=O)O (stereo partly specified) |  |  | 6.2 | 
11 | O=C(CCSC1OC(CO)C(O)C(O)C1O)NCCCCC(NC(=O)C(CCCCNC(=O)CCSC1OC(CO)C(O)C(O)C1O)NC(=O)[C@@H](CCCCNC(=O)CCSC1OC(CO)C(O)C(O)C1O)NC(=O)CCSC1OC(CO)C(O)C(O)C1O)C(=O)O (stereo partly specified) |  |  | 3.6 | 
12 | O=C(CCSC1OC(CO)C(O)C(O)C1O)NCCCCC(NC(=O)[C@@H](CCCCNC(=O)CCSC1OC(CO)C(O)C(O)C1O)NC(=O)CCSC1OC(CO)C(O)C(O)C1O)C(=O)O (stereo in doubt; 31) | 0 | 2 |  | 0
13 | N/C(CSC1OC(CO)C(O)C(O)C1O)=N\CCCC[C@@H](/N=C(\N)CSC1OC(CO)C(O)C(O)C1O)C(=O)O (stereo partly specified) |  |  | 100 | 

Reference: ChEMBL document CHEMBL1121752, “Cell-specific ligands for selective drug delivery to tissues and organs” (J Med Chem, 1981)
